target: T1, cgreGFP (Clytia gregaria, UniProt D7PM05); assay: fluorescence titration (ex […] nm, em […] nm); format: binding; settings: read-out: K d (apparent)
T1 construct: gene GFP2; full-length, N-terminal polyhistidine tag kept (pET-28a(+)-TEV, NdeI/BamHI), codon-optimized gene, expressed in E. coli BL21(DE3)
T1 sequence (D7PM05 1-235): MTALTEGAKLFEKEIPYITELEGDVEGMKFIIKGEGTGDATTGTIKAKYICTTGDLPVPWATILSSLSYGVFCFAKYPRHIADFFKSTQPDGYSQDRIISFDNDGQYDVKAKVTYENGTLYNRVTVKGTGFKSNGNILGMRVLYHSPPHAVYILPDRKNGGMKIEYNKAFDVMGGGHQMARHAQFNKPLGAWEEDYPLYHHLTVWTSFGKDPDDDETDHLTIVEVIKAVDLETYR

| Compound | Kd [mM] |
| --- | --- |
| Cl [chloride] | 25.2 ± 2 |
| I [iodide] | 5.3 |
| Br [bromide] | 15.1 ± 1.2 |
| O=[N+]([O-])O [nitrate] | 10.7 ± 1.2 |

From PMC13004581, “Physical Mechanisms of an Unconventional Green Fluorescent Protein Indicator for Chloride” (The Journal of Physical Chemistry. B, 2026)
